“Also recorded” adds a separate entry of the source. Like-named read-outs stand apart in the source and are kept apart here.
Experiments:
aldehyde oxidase [1] = assay: Substrate specificity of the conversion of RPdR to RUdR; format: in vitro ADME, rat; conditions: for Conversion of RPdR to RUdR / Products of the reaction: substrate 180 μM; for Conversion of RPdR to RUdR: 2 to 4 separate experiments, in nmol/mg/min
Description: (§1) Rat hepatic tissue was washed with ice-cold 1.15% KCl and blotted dry. The tissue was then homogenized with a tissue homogenizer, in a volume of 1.15% KCl that was 3 times the tissue weight, to form a 25% (w/v) homogenate. The homogenate was then centrifuged at 10,000 g for 10 minutes at 4° C. The resulting supernatant was filtered through Miracloth (similar to cheese cloth) then dialyzed overnight against 50 mM Tris-HCl buffer pH 7.5 and stored at -80° C. before use. Rat hepatocytes were obtained by a perfusion technique then the cells were extracted with 10 mM phosphate buffer, pH 7.5, containing 1M KCl and dialyzed for 4 hours against 50 mM Tris-HCl buffer pH 7.5.
(§2) For the standard assay condition, the reaction mixture contained 50 mM Tris-HCl, pH 7.5, 1 mM EDTA, 180 μM of IPdR (or its analogs) and approximately 0.01 mg protein of 10,000 g supernatant of tissue homogenate in a final volume of 500 μl and the incubation was at 37° C. for 10 minutes unless specified otherwise. 300 μl of reaction mixture was removed at the end of incubation and mixed with 630 μl acetonitrile then agitated. The precipitated protein were removed by centrifugation and the supernatant was lyophilized to dryness. The samples were reconstituted to the original aliquot volume with the HPLC mobile phase buffer and analyzed on a Alltech RP-18 column. IPdR, IUdR and IU were detected at a UV absorption wavelength of 230 nm, and IPdR was also detected at a UV absorption wavelength of 335 nm. The mobile phase was 10% acetonitrile/90%mM ammonium acetate, pH 6.8 and the flow rate was 1 ml/minute. Standard curves of IPdR and IUdR were established from the integration value of known concentrations.
(§3) Several 2-pyrimidinone deoxyribose analogs were examined for the conversion to their deoxyuridine counterparts. […] Nevertheless the relative Vmax for IPdR in the reaction at pH 7.5 and pH 9.5 is the same. […] The synthetic substrates for aldehyde oxidase appear to be better than its natural substrates, N^1 -methylnicotinamide and acetaldehyde, as judged by the potency of inhibition of N^1 -methylnicotinamide and acetaldehyde to the IPdR oxidation reaction (Table IV). The rate of reactivity of the liver enzyme with different IPdR analogs follows the order EPdR, IP, IPdR, 5-bromo-2-pyrimidinone deoxyribose (BPdR) and 5-methyl-2-pyrimidinone deoxyribose (MPdR) or 5-ethyl-2-pyrimidinone deoxyribose (EtPdR) (Table V). Electronegative substituents in the 5-position seemed to increase the substrate activity in this oxidation reaction.
Substrate specificity of the conversion of […]

aldehyde oxidase [2] = conditions: cited from earlier work
IPdR oxidase = assay: Effect of inhibitors on the oxidation of IPdR to IUdR by liver homogenate; format: biochemical, rat; conditions: for IC50: liver homogenate, read-out: IC50 (concentration at 50% inhibition of the conversion of IPdR to IUdR); for product inhibition: at 50 mM
Description: as §1, §2

[3] = Michaelis constant / Vmax of 2-pyrimidinone deoxyribose analogs with the liver enzyme; format: biochemical, rat; conditions: rat, liver aldehyde oxidase
Description: as §1, §2, §3

[4] = Toxicity of FU and FP in BDF1 mice; format: in vivo; conditions: mouse, in vivo, po, daily, Day 1,2,3,4,5
Description: (§4) BDF1 mice were administered daily oral dosages of either 50, 75 or 100 mg/kg of FU or 100, 150 or 200 mg/kg of FP. The survival rates of each are presented in chart and graphic forms in Table VI and FIGS. 2 and 3.

BDF1 mice = assay: Toxicity of FU and FP in BDF1 mice; format: in vivo; conditions: for Death/Total: Day 1,2,3,4,5
Description: as §4

P388-R leukemia cells = assay: Survival time of mice bearing P388-R leukemia cells; format: in vivo, mouse; conditions: for Cures/Total / ILS (increase in life span over controls): daily on Day 1,2,3,4,5
Description: (§5) Mice were injected with 100,000 P388-R leukemia cells to induce a leukemia. These cells were resistant to Adriamycin. Daily treatments of 25 and 50 mg/kg FU and 50 and 100 mg/kg FP were given orally to these leukemic mice and the duration of survival was measured. The results are given in tabular and graphic form in Table VII and FIG. 4.
Inoculum: 10^6 P388R cells into each mouse (i.p.)

colon 38 cells = assay: Colon 38 tumor weight in mice; format: in vivo, mouse; conditions: FU 25 and 50, FP 50 and 100 mg/kg daily oral
Description: (§6) Mice were injected with colon 38 cells and were either not treated or treated with daily treatments of 25 and 50 mg/kg FU and 50 and 100 mg/kg FP were given orally to the mice and the change in tumor weight was measured over time.

hepatic aldehyde oxidase [5] = assay: Conversion of prodrugs to active compound in vivo
Source text: (§7) As most nucleosides and nucleoside bases include keto groups in their formula and many are structurally related to the structure of uracil, it is expected that bio-affecting compounds which are analogs of nucleosides and nucleoside bases are prime candidates for bio-affecting compounds for which prodrugs in accordance with the present invention can be designed, metabolizable by hepatic aldehyde oxidase into such compounds. Thus, in addition to uracil and uridine analogs, analogs of other nucleosides and nucleoside bases, such as cytidine, guanosine, 6-azauridine and 8-azaguanine analogs, may be used as the basis of the formation of prodrugs in accordance with the present invention. Examples of bio-affecting compounds in this category include ddG, DHPG, ACV, ddI, D4T and AZT.

[6] = tested on: leukemia and colon cancer; assay: Therapeutic effectiveness of FP versus FU in leukemia and colon cancer; format: in vivo, mouse; conditions: oral FP
Source text: There are other occasions besides the treatment of liver-associated diseases when the administration of a prodrug will be preferred to the administration of the bio-affecting compound which is formed from such prodrugs. For example, many drugs are not orally administrable for any of a variety of reasons. Oral administration of a prodrug from which the active compound is released in the liver will avoid most of the disadvantages of oral administration of the active compound. Thus, for example, FU is a well-known anti-cancer drug which cannot be administered orally. FP is a prodrug which is metabolizabie by hepatic aldehyde oxidase to FU. FP may be given orally to a subject.
as §5, §6

Transgenic mice = assay: Treatment of transgenic mice expressing SV40 large tumor antigen; format: in vivo, mouse
Description: Transgenic mice obtained according to the method of Sepulveda et al., Cancer Research 49:6108-6117 (1989) were administered beginning at nine weeks after birth in a female and male, wherein the treatment group received 100 mg/kg two times per day, once per week.

hepatic aldehyde oxidase [7] = assay: Metabolism of prodrugs by hepatic aldehyde oxidase in vitro / in vivo; format: in vitro ADME
Source text: as §7

[8] = cited from earlier work; for catabolism to the free base: followed by dehalogenation; for cytotoxicity limiting effective use as radiosensitizer: in vivo
[9] = tested on: metastatic prostate cancer; conditions: cited from earlier work

SMILES: O=c1ncc(I)c[nH]1 [IP, 5-iodo-2-pyrimidinone]
- substrate quality for aldehyde oxidase (aldehyde oxidase [1]; in words): excellent substrate
- Conversion of RPdR to RUdR (aldehyde oxidase [1]): 18 ± 3

SMILES: CC=O [Acetaldehyde]
- inhibition of aldehyde oxidase activity (aldehyde oxidase [2]; literature): inhibited by acetaldehyde
- IC50 (IPdR oxidase): 5 mM

SMILES: C#Cc1cnc(=O)n([C@H]2C[C@H](O)[C@@H](CO)O2)c1 [EPdR, 5-ethynyl-2-pyrimidinone-deoxyribose]
- Conversion of RPdR to RUdR (aldehyde oxidase [1]): 20 ± 4
- Km ([3]; pH 7.5): 77 µM
- Km ([3]; pH 9.5): 46 µM

SMILES: Cc1cnc(=O)n([C@H]2C[C@H](O)[C@@H](CO)O2)c1 [MPdR, 5-methyl-2-pyrimidinone-deoxyribose]
- Products of the reaction (aldehyde oxidase [1]): not detected
- Conversion of RPdR to RUdR (aldehyde oxidase [1]): < 0.1

SMILES: N[C@@H](CS)C(=O)O [Cysteine]
- inhibition of aldehyde oxidase activity (aldehyde oxidase [2]; at 5 mM): no significant inhibition
- inhibition of aldehyde oxidase activity (aldehyde oxidase [2]; at 50 mM): potent inhibition
- product inhibition (IPdR oxidase): Approximately 40%
- IC50 (IPdR oxidase): > 50 mM

SMILES: OCCS [Mercaptoethanol, 2-mercaptoethanol]
- inhibition of aldehyde oxidase activity (aldehyde oxidase [2]; literature): could be inhibited
- IC50 (IPdR oxidase): 1.8 mM

SMILES: O[C@H](CS)[C@H](O)CS (racemic) [Dithiothreitol]
- inhibition of aldehyde oxidase activity (aldehyde oxidase [2]; literature): could be inhibited
- IC50 (IPdR oxidase): 0.1 mM

SMILES: O=c1[nH]cc(F)c(=O)[nH]1 [FU, 5-fluoro uracil, reference compound]
- LD50 [4]: 70 mg/kg
- Death/Total (BDF1 mice; 50 mg/kg p.o.): 5/5
- Death/Total (BDF1 mice; 75 mg/kg p.o.): 2/5
- Death/Total (BDF1 mice; 100 mg/kg p.o.): 1/5
- Cures/Total (P388-R leukemia cells; 25 mg/kg oral): 0/5
- ILS (increase in life span over controls) (P388-R leukemia cells; 25 mg/kg oral): 5%
- Cures/Total (P388-R leukemia cells; 50 mg/kg oral): 0/5
- ILS (increase in life span over controls) (P388-R leukemia cells; 50 mg/kg oral): 25%
- reduction in tumor size or reduction in its growth rate, FU versus FP (colon 38 cells): comparable between FU and FP

SMILES: NO [Hydroxyl amine]
- IC50 (IPdR oxidase): 1 mM

SMILES: C[n+]1cccc(C(N)=O)c1 [N^1 -methylnicotinamide]
- conversion by hepatic aldehyde oxidase (aldehyde oxidase [2]; to N1-methyl-2-pyridone-5-carboxamide and N1-methyl-4-pyridone-3-carboxamide): converts N^1 -methylnicotinamide
- IC50 (IPdR oxidase): 1 mM

SMILES: Oc1ncc(F)cn1 [FP, 5-fluoro-2-pyrimidinone]
- metabolism to FU by hepatic aldehyde oxidase in vivo (hepatic aldehyde oxidase [5]): metabolizable to FU
- LD50 [4]: 180 mg/kg
- Death/Total (BDF1 mice; 100 mg/kg p.o.): 5/5
- Death/Total (BDF1 mice; 150 mg/kg p.o.): 4/5
- Death/Total (BDF1 mice; 200 mg/kg p.o.): 0/5
- toxicity of FP compared with FU (BDF1 mice; oral, even when higher dosages were administered): considerably less
- Conversion of RPdR to RUdR (aldehyde oxidase [1]): 20
- effectiveness of FP compared with FU [6]: essentially the same as FU
- Cures/Total (P388-R leukemia cells; 50 mg/kg oral): 0/5
- ILS (increase in life span over controls) (P388-R leukemia cells; 50 mg/kg oral): 0%
- Cures/Total (P388-R leukemia cells; 100 mg/kg oral): 0/5
- ILS (increase in life span over controls) (P388-R leukemia cells; 100 mg/kg oral): 30%
- survival time using FP compared to FU (P388-R leukemia cells; FU 25 and 50, FP 50 and 100 mg/kg oral): as long using FP compared to FU
- weight gain, male and female (Transgenic mice; after week 13): significantly decreased weight gain
- body weight increase, female (Transgenic mice; female, 100 mg/kg two times per day, once per week): slower increase in body weight
- survival, female (Transgenic mice; female, versus control, which died at week 16): lived longer; also recorded: survived the control rat
- body weight increase, male (Transgenic mice; male, 100 mg/kg two times per day, once per week): slower increase in body weight
- survival, male (Transgenic mice; male, inferred from slower body weight increase): longer survival than control
- metabolism to FU by hepatic aldehyde oxidase in vitro (hepatic aldehyde oxidase [7]): metabolizable to FU
- reduction in tumor size or reduction in its growth rate, FU versus FP (colon 38 cells): comparable between FU and FP

SMILES: NC(CO)(CO)CO [Tris buffer]
- stimulation of aldehyde oxidase activity (aldehyde oxidase [2]; literature): stimulated by potassium ferricyanide and Tris buffer

SMILES: OO [Hydrogen peroxide]
- IC50 (IPdR oxidase): 10 mM

SMILES: CCCC(C(=O)OCCN(CC)CC)(c1ccccc1)c1ccccc1 [SKF-525A]
- IC50 (IPdR oxidase): 0.03 mM

SMILES: O=c1ncc(Br)cn1[C@H]1C[C@H](O)[C@@H](CO)O1 [BPdR, 5-bromo-2-pyrimidinone-deoxyribose]
- Conversion of RPdR to RUdR (aldehyde oxidase [1]): 7 ± 2

SMILES: O=c1[nH]c(=O)n([C@H]2C[C@H](O)[C@@H](CO)O2)cc1Br [BUdR, 5-bromo-deoxyuridine]
- catabolism to the free base [8]: rapid catabolism
- cytotoxicity limiting effective use as radiosensitizer [8]: limited by their cytotoxicity

SMILES: Cc1ccc(C(=O)Nc2ccc(S(=O)(=O)O)c3cc(S(=O)(=O)O)cc(S(=O)(=O)O)c23)cc1NC(=O)c1cccc(NC(=O)Nc2cccc(C(=O)Nc3cc(C(=O)Nc4ccc(S(=O)(=O)O)c5cc(S(=O)(=O)O)cc(S(=O)(=O)O)c45)ccc3C)c2)c1 [suramin]
- effectiveness of bolus dosages ([9]; bolus): significantly less effective
- effective anti-cancer dosage relative to dosage resulting in paralysis ([9]; human trials, metastatic prostate cancer): very close to the dosage resulting in paralysis

SMILES: CCc1cnc(=O)n([C@H]2C[C@H](O)[C@@H](CO)O2)c1 [EtPdR, 5-ethyl-2-pyrimidinone-deoxyribose]
- Products of the reaction (aldehyde oxidase [1]): not detected
- Conversion of RPdR to RUdR (aldehyde oxidase [1]): < 0.1

SMILES: CCCCS [1-Butane thiol]
- product inhibition (IPdR oxidase): Approximately 25%
- IC50 (IPdR oxidase): > 50 mM

SMILES: O=c1[nH]c(=O)n([C@H]2C[C@H](O)[C@@H](CO)O2)cc1I [IUdR, iodo-deoxyuridine]
- catabolism to the free base [8]: rapid catabolism
- cytotoxicity limiting effective use as radiosensitizer [8]: limited by their cytotoxicity
- systemic toxicity limiting clinical usage ([8]; systemic use): limited its clinical usage

— patent US5728684A, “Determination of prodrugs metabolizable by the liver and therapeutic use thereof” (priority 1994, dated 1998)
